Experimental findings from patent US4215043A, “Bicyclomycin derivatives” (Fujisawa Pharmaceutical Co., Ltd., priority 1975, dated 1980) are described below.

By ED50 is commonly meant the midpoint of the dose-response relation. A high value points to a need for a large dose.

The test deals with Escherichia coli strain 1075. The experiment in a line: Protecting effect in experimental mice infections (E. coli strain 1075). The test is classed as in vivo. Particulars: sc, 120 h, female albino mice 8 g-24 g, infected intraperitoneally with E. coli strain 1075, treated subcutaneously, survival on 5th day after infection, highest dosage tested usually 300 mg/kg. The method, then: Protecting Effect in Experimental Mice Infections:
For a reference's sake, with regard to antimicrobial activity of the typical compound which falls within the category of the compounds of the formula (I) of the present invention, there are illustrated in vivo tests in which active ingredient are the following compounds.
The test compound against in vivo against the species Escherichia coli was tested using female albino mice weighing 8 g-24 g.
The mice were infected by intraperitoneal route with standardized suitable diluted bacterial suspensions of E. coli strain 1075 and then treated subcutaneously with the test compound.
The ED50 (mg/kg) was determined from the numbers of mice surviving on the 5th day after infection. The highest dosage tested was usually 300 mg/kg.

The molecule `CC(O)(CO)C(O)C12NC(=O)C(O)(NC1=O)C(Br)(CBr)CCO2` (centres unmarked) [Compound 2, 5,11-dibromo-5,11-dihydrobicyclomycin] gave an ED50 of 60 mg/kg.
As to `C=C1CCOC2(C(O)C3(C)COC(C)(C)O3)NC(=O)C1(O)NC2=O` (centres unmarked) [Compound 1, 2',3'-O,O-isopropylidenebicyclomycin], the median effective dose (ED50) turned out to be 65 mg/kg.
